The results in this text go back to patent publication US12570642B2, “GLP-IR modulating compounds” (Gilead Sciences, Inc., priority 2021, dated 2026).

For the test, the target named is GLP-1R (Homo sapiens, UniProt P43220). In words: GLP-1R Activation - cAMP Assay. It counts as cell-based. The following applies: cAMP increase in CHO cells stably expressing GLP-1R; each compound run on one of the two cAMP assays (Assay 1 or Assay 2, not specified). In a few lines: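 CHO cells stably expressing GLP-1R, plated at 1,000 cells/well overnight, then equilibrated 1 h in HBSS with 20 mM Hepes and 0.1% BSA. Agonist added as 10-point dose response for 30 min at 37 °C. cAMP measured by HTRF (Cisbio Gs Dynamic kit); EC50 from sigmoidal fit.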

Each structure is given as a SMILES string.

Sequence of GLP-1R (P43220 24-463): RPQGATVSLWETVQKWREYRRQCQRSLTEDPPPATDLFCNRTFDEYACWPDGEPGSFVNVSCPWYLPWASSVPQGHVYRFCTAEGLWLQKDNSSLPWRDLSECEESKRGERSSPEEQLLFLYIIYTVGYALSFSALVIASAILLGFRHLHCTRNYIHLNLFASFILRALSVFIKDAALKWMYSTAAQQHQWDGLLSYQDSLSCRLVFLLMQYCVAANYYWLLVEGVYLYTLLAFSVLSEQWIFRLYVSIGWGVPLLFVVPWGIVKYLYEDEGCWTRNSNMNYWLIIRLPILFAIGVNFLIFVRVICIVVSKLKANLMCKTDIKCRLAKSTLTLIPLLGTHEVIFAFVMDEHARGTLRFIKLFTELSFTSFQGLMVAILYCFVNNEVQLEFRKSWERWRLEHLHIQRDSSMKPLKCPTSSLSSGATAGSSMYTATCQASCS

On to `Cn1nnc2cc(COc3cccc(-c4cc(F)c(Cc5nc6ccc(C(=O)O)cc6n5C[C@@H]5CCO5)cc4F)n3)ccc21` [Example 523, (S)-2-(2,5-difluoro-4-(6-((1-methyl-1H-benzo[d][1,2,3]triazol-5-yl)methoxy)pyridin-2-yl)benzyl)-1-(oxetan-2-ylmethyl)-1H-benzo[d]imidazole-6-carboxylic acid], for which the EC50 came out at 0.362 nM. In other words, the sub-nanomolar range.

Turning to `CC1(C)COCC1n1c(Cc2cc(F)c(-c3nccc(OCc4ccc(Cl)cc4F)n3)cc2F)nc2c(F)cc(C(=O)O)cc21` (centres unmarked) [Example 348, 2-(4-(4-((4-chloro-2-fluorobenzyl)oxy)pyrimidin-2-yl)-2,5-difluorobenzyl)-1-(4,4-dimethyltetrahydrofuran-3-yl)-4-fluoro-1H-benzo[d]imidazole-6-carboxylic acid], a half-maximal response (EC50) required 0.55 nM.

Compound `CC1(C)COCC1n1c(Cc2cc(F)c(-c3ccc(F)c(OCc4ccc(C(F)(F)F)cc4F)n3)cc2F)nc2c(F)cc(C(=O)O)cc21` (centres unmarked) [Example 503, 2-(2,5-difluoro-4-(5-fluoro-6-((2-fluoro-4-(trifluoromethyl)benzyl)oxy)pyridin-2-yl)benzyl)-1-(4,4-dimethyltetrahydrofuran-3-yl)-4-fluoro-1H-benzo[d]imidazole-6-carboxylic acid] registered an EC50 of 0.081 nM.

Turning to `CC1(C)COCC1n1c(Cc2cc(F)c(-c3cccc(OCc4c(F)cc(Cl)cc4F)n3)cc2F)nc2c(F)cc(C(=O)O)cc21` (centres unmarked) [Example 499, 2-(4-(6-((4-chloro-2,6-difluorobenzyl)oxy)pyridin-2-yl)-2,5-difluorobenzyl)-1-(4,4-dimethyltetrahydrofuran-3-yl)-4-fluoro-1H-benzo[d]imidazole-6-carboxylic acid], the half-maximal effective concentration (EC50) came to 0.508 nM.

The compound `CC1(C)COC[C@H]1n1c(Cc2cc(F)c(-c3cccc(OCc4ccc(Cl)c(F)c4)n3)cc2F)nc2ccc(C(=O)O)cc21` [Example 394, (S)-2-(4-(6-((4-chloro-3-fluorobenzyl)oxy)pyridin-2-yl)-2,5-difluorobenzyl)-1-(4,4-dimethyltetrahydrofuran-3-yl)-1H-benzo[d]imidazole-6-carboxylic acid] gave an EC50 of 0.243 nM.

For `N#Cc1ccc(COc2cccc(-c3cc(F)c(Cc4nc5ccc(C(=O)O)cc5n4[C@@H]4COC[C@@H]4C(F)F)cc3F)n2)c(F)c1` (single isomer, unassigned) [Example 233], the EC50 amounted to 3.11 nM.

On to `CC1(C)COC[C@H]1n1c(Cc2cc(F)c(-c3ccc(F)c(OCc4ccc(C#N)cc4F)n3)cc2F)nc2ccc(C(=O)O)nc21` [Example 428, (S)-2-(4-(6-((4-cyano-2-fluorobenzyl)oxy)-5-fluoropyridin-2-yl)-2,5-difluorobenzyl)-3-(4,4-dimethyltetrahydrofuran-3-yl)-3H-imidazo[4,5-b]pyridine-5-carboxylic acid], for which the response was half-maximal at 0.105 nM (EC50).

For the compound `COCCn1c(Cc2cc(F)c(-c3cccc(OCc4ccc(-c5ccnn5C)cc4F)n3)cc2F)nc2ccc(C(=O)O)cc21` [Example 101, 2-(2,5-difluoro-4-(6-((2-fluoro-4-(1-methyl-1H-pyrazol-5-yl)benzyl)oxy)pyridin-2-yl)benzyl)-1-(2-methoxyethyl)-1H-benzo[d]imidazole-6-carboxylic Acid], the 50% effective concentration (EC50) stood at 1.46 nM.

`CC1(C)COC[C@H]1n1c(Cc2cc(F)c(-c3cccc(OCc4ccc(C#N)c(F)c4F)n3)cc2F)nc2c(F)cc(C(=O)O)cc21` [Example 500, (S)-2-(4-(6-((4-cyano-2,3-difluorobenzyl)oxy)pyridin-2-yl)-2,5-difluorobenzyl)-1-(4,4-dimethyltetrahydrofuran-3-yl)-4-fluoro-1H-benzo[d]imidazole-6-carboxylic Acid] gave an EC50 of 0.203 nM.

`CC1(C)COC[C@H]1n1c(Cc2cc(F)c(-c3cccc(OCc4ncc(Cl)cc4F)n3)cc2F)nc2ccc(C(=O)O)cc21` (single isomer, unassigned) [Example 289A]: a half-maximal response (EC50) required 0.122 nM.

In turn, `COC(=O)N1Cc2ccc(COc3cccc(-c4cc(F)c(Cc5nc6c(F)cc(C(=O)O)cc6n5C[C@@H]5CCO5)cc4F)n3)cc2C1` [Example 349, 2-[[2,5-difluoro-4-[6-[(2-methoxycarbonylisoindolin-5-yl)methoxy]-2-pyridyl]phenyl]methyl]-7-fluoro-3-[[(2S)-oxetan-2-yl]methyl]benzimidazole-5-carboxylic acid] registered an EC50 of 0.042 nM.

As for `Cc1cc(Cc2nc3ccc(C(=O)O)cc3n2[C@@H]2COCC2(C)C)c(Cl)cc1-c1ccnc(OCc2ccc(C#N)cc2F)n1` [Example 320, (S)-2-(2-chloro-4-(2-((4-cyano-2-fluorobenzyl)oxy)pyrimidin-4-yl)-5-methylbenzyl)-1-(4,4-dimethyltetrahydrofuran-3-yl)-1H-benzo[d]imidazole-6-carboxylic acid], the EC50 was found to be 0.827 nM.

As to `N#Cc1ccc(COc2cccc(-c3cc(F)c(Cc4nc5ccc(C(=O)O)cc5n4C4CCCC45CC5)cc3F)n2)c(F)c1` (centres unmarked) [Example 63, 2-(4-(6-((4-cyano-2-fluorobenzyl)oxy)pyridin-2-yl)-2,5-difluorobenzyl)-1-(spiro[2.4]heptan-4-yl)-1H-benzo[d]imidazole-6-carboxylic Acid], the 50% effective concentration (EC50) turned out to be 2.55 nM.

In turn, `CC1(C)COC[C@H]1n1c(Cc2cc(F)c(-c3cccc(OCc4cnc(-n5ccnn5)cc4Cl)n3)cc2F)nc2c(Cl)cc(C(=O)O)cc21` [Example 528, (S)-4-chloro-2-(4-(6-((4-chloro-6-(1H-1,2,3-triazol-1-yl)pyridin-3-yl)methoxy)pyridin-2-yl)-2,5-difluorobenzyl)-1-(4,4-dimethyltetrahydrofuran-3-yl)-1H-benzo[d]imidazole-6-carboxylic acid] gave an EC50 of 0.047 nM. Against the preceding compound, the EC50 is about 54-fold lower.

For `CO[C@H]1COC[C@H]1n1c(Cc2cc(F)c(-c3cccc(OCc4ccc(C#N)cc4F)n3)cc2F)nc2ccc(C(=O)O)cc21` (single isomer, unassigned) [Example 276], the EC50 amounted to 0.108 nM. Against the preceding compound, the EC50 is about 2.3-fold higher.

On to `CC1(C)COC[C@H]1n1c(Cc2cc(F)c(-c3cccc(OCc4ccc(C#N)cc4)n3)cc2F)nc2c(F)cc(C(=O)O)cc21` [Example 376, (S)-2-(4-(6-((4-cyanobenzyl)oxy)pyridin-2-yl)-2,5-difluorobenzyl)-1-(4,4-dimethyltetrahydrofuran-3-yl)-4-fluoro-1H-benzo[d]imidazole-6-carboxylic acid], for which the half-maximal effective concentration (EC50) was determined as 0.056 nM.

As for `CC1(C)COCC1n1c(Cc2cc(F)c(-c3cccc(OCc4cnc(-n5ccnn5)cc4Cl)n3)cc2F)nc2c(F)cc(C(=O)O)cc21` (centres unmarked) [Example 173, 2-(4-(6-((4-chloro-6-(1H-1,2,3-triazol-1-yl)pyridin-3-yl)methoxy)pyridin-2-yl)-2,5-difluorobenzyl)-1-(4,4-dimethyltetrahydrofuran-3-yl)-4-fluoro-1H-benzo[d]imidazole-6-carboxylic Acid], the concentration for a half-maximal effect (EC50) was found to be 0.018 nM.

With `COCCn1c(Cc2cc(F)c(-c3cc(O)cc(OCc4ccc(C#N)cc4F)n3)cc2F)nc2ccc(C(=O)O)cc21` [Example 44, 2-(4-(6-((4-cyano-2-fluorobenzyl)oxy)-4-hydroxypyridin-2-yl)-2,5-difluorobenzyl)-1-(2-methoxyethyl)-1H-benzo[d]imidazole-6-carboxylic Acid], the concentration giving a half-maximal response (EC50) was determined as 0.81 nM.

In the case of `N#Cc1ccc(COc2cccc(-c3cc(F)c(Cc4nc5ccc(C(=O)O)cc5n4[C@H]4CCOC4)cc3F)n2)c(F)c1` [Example 1, (S)-2-(4-(6-((4-cyano-2-fluorobenzyl)oxy)pyridin-2-yl)-2,5-difluorobenzyl)-1-(tetrahydrofuran-3-yl)-1H-benzo[d]imidazole-6-carboxylic acid], a half-maximal effect (EC50) was put at 1.12 nM.

`COc1nnc(COc2cccc(-c3ccc(Cc4nc5c(F)cc(C(=O)O)cc5n4[C@@H]4COCC4(C)C)c(F)c3)n2)s1` [Example 309, (S)-1-(4,4-dimethyltetrahydrofuran-3-yl)-4-fluoro-2-(2-fluoro-4-(6-((5-methoxy-1,3,4-thiadiazol-2-yl)methoxy)pyridin-2-yl)benzyl)-1H-benzo[d]imidazole-6-carboxylic acid] yielded an EC50 of 0.368 nM. Compared with the last compound, the EC50 is about 3-fold lower.

`N#Cc1ccc(COc2cccc(-c3cc(F)c(Cc4nc5ccc(C(=O)O)cc5n4[C@H]4COC[C@H]4CF)cc3F)n2)c(F)c1` [Example 172] returned a concentration for a half-maximal effect (EC50) of 0.129 nM.

`N#Cc1ccc(COc2cccc(-c3cc(F)c(Cc4nc5ccc(C(=O)O)cc5n4[C@H]4CO[C@H]5OCC[C@H]54)cc3F)n2)c(F)c1` [Example 20, 2-(4-(6-((4-cyano-2-fluorobenzyl)oxy)pyridin-2-yl)-2,5-difluorobenzyl)-1-((3R,3aS,6aR)-hexahydrofuro[2,3-b]furan-3-yl)-1H-benzo[d]imidazole-6-carboxylic Acid] registered an EC50 of 0.35 nM.

Turning to `COCCn1c(Cc2cc(F)c(-c3cccc(OCc4cnc(Cl)cn4)n3)cc2F)nc2ccc(C(=O)O)cc21` [Example 24, 2-(4-(6-((5-chloropyrazin-2-yl)methoxy)pyridin-2-yl)-2,5-difluorobenzyl)-1-(2-methoxyethyl)-1H-benzo[d]imidazole-6-carboxylic Acid], the half-maximal effective concentration (EC50) is 9.96 nM.

`CC1(C)COC[C@H]1n1c(Cc2cc(F)c(-c3ccnc(OCc4ccc(Cl)cc4)n3)cc2F)nc2ccc(C(=O)O)cc21` [Example 231, (S)-2-(4-(2-((4-chlorobenzyl)oxy)pyrimidin-4-yl)-2,5-difluorobenzyl)-1-(4,4-dimethyltetrahydrofuran-3-yl)-1H-benzo[d]imidazole-6-carboxylic acid] displayed an EC50 of 0.049 nM.

On to `CC1(C)COC[C@H]1n1c(Cc2cc(F)c(-c3nccc(OCc4ccc(Cl)cc4F)n3)cc2F)nc2ccc(C(=O)O)cc21` [Example 405, (S)-2-(4-(4-((4-chloro-2-fluorobenzyl)oxy)pyrimidin-2-yl)-2,5-difluorobenzyl)-1-(4,4-dimethyltetrahydrofuran-3-yl)-1H-benzo[d]imidazole-6-carboxylic acid], for which the response was half-maximal at 0.337 nM (EC50).

`COC[C@@]1(C)COCC1n1c(Cc2cc(F)c(-c3cccc(OCc4ccc(Cl)cc4F)n3)cc2F)nc2ccc(C(=O)O)cc21` (single isomer, unassigned) [Example 546]: the concentration giving a half-maximal response (EC50) was found to be 0.706 nM.

What is called EC50 is the concentration that produces a half-maximal response. A higher EC50 goes with a less potent agent.
